Source: patent US20240150377A1, “MODULATORS OF CYSTIC FIBROSIS TRANSMEMBRANE CONDUCTANCE REGULATOR” (VERTEX PHARMACEUTICALS INCORPORATED, priority 2020, published 2024)
Read-outs that look alike come from different tables or passages of the source.

Target: CFTR (Homo sapiens, UniProt P13569)
Experiment: Membrane potential dye, Enteroid Assay B
Assay type: cell-based
Conditions: for EC50: read-out: Ent. B EC50; for Ent. B Max Activity: chloride transport as % of triple combination control (Enteroid Assay B)
Protocol: Base medium (ADF+++) consisted of Advanced DMEM/Ham's F12, 2 mM Glutamax, 10 mM HEPES, […] penicillin/streptomycin.
Intestinal enteroid maintenance medium (IEMM) consisted of ADF+++, 1× B27 supplement, 1× N2 supplement, 1.25 mM N-acetyl cysteine, 10 mM Nicotinamide, 50 ng/mL hEGF, 10 nM Gastrin, 1 μg/mL hR-spondin-1, 100 ng/mL hNoggin, TGF-b type 1 inhibitor A-83-01, 100 μg/mL Primocin, 10 μM P38 MAPK inhibitor SB202190.
Bath 1 Buffer consisted of 1 mM MgCl2, 160 mM NaCl, 4.5 mM KCl, 10 mM HEPES, 10 mM Glucose, 2 mM CaCl2).
Chloride Free Buffer consisted of 1 mM Magnesium Gluconate, 2 mM Calcium Gluconate, 4.5 mM Potassium Gluconate, 160 mM Sodium Gluconate, 10 mM HEPES, 10 mM Glucose.
BathI Dye Solution consisted of Bath 1 Buffer, 0.04% Pluronic F127, 20 μM Methyl Oxonol, 30 μM CaCCinh-A01, 30 μM Chicago Sky Blue.
Chloride Free Dye Solution consisted of Chloride Free Buffer, 0.04% Pluronic F127, 20 μM Methyl Oxonol, 30 μM CaCCinh-A01, 30 μM Chicago Sky Blue.
Chloride Free Dye Stimulation Solution consisted of Chloride Free Dye Solution, 10 μM forskolin, 100 μM IBMX, and 300 nM Compound III.
Human intestinal epithelial enteroid cells were obtained from the Hubrecht Institute for Developmental Biology and Stem Cell Research, Utrecht, The Netherlands and expanded in T-Flasks as previously described (Dekkers J F, Wiegerinck C L, de Jonge H R, Bronsveld I, Janssens H M, de Winter-de Groot K M, Brandsma A M, de Jong N W M, Bijvelds M J C, Scholte B J, Nieuwenhuis E E S, van den Brink S, Clevers H, van der Ent C K, Middendorp S and M Beekman J M. A functional CFTR assay using primary cystic fibrosis intestinal organoids. Nat Med. 2013 July;19(7):939-45.).
3. Enteroid Cell Harvesting and Seeding
Cells were recovered in cell recovery solution, collected by centrifugation at 650 rpm for 5 min at 4° C., resuspended in TrypLE and incubated for 5 min at 37° C. Cells were then collected by centrifugation at 650 rpm for 5 min at 4° C. and resuspended in IEMM containing 10 μM ROCK inhibitor (RI). The cell suspension was passed through a 40 μm cell strainer and resuspended at 1×10^6 cells/mL in IEMM containing 10 μM RI. Cells were seeded at 5000 cells/well into multi-well plates and incubated for overnight at 37° C., 95% humidity and 5% CO2 prior to assay.
5. Membrane Potential Dye, Enteroid Assay B
Enteroid cells were incubated with test compound in IEMM for 18-24 hours at 37° C., 95% humidity and 5% CO2. […] Briefly, cells were washed 5 times in Bath 1 Buffer. Bath 1 Dye Solution was added and the cells were incubated for 25 min at room temperature. Following dye incubation, cells were washed 3 times in Chloride Free Dye Solution. Chloride transport was initiated by addition of Chloride Free Dye Stimulation Solution and the fluorescence signal was read for 15 min. […] Chloride transport was then expressed as a percentage of the chloride transport following treatment with 1 μM (14S)-8-[3-(2-{Dispiro[2.0.2.1]heptan-7-yl}ethoxy)-1H-pyrazol-1-yl]-12,12-dimethyl-2λ^6-thia-3,9,11,18,23-pentaazatetracyclo[17.3.1.111,14.05,10]tetracosa-1(22),5,7,9,19(23),20-hexaene-2,2,4-trione, 3 μM (R)-1-(2,2-difluorobenzo[d][1,3]dioxol-5-yl)-N-(1-(2,3-dihydroxypropyl)-6-fluoro-2-(1-hydroxy-2-methylpropan-2-yl)-1H-indol-5-yl)cyclopropanecarboxamide and 300 nM acute N-[2,4-bis(1,1-dimethylethyl)-5-hydroxyphenyl]-1,4-dihydro-4-oxoquinoline-3-carboxamide triple combination control (% Activity).

[1] = Table 8, human enteroid cells, 18-24 hours, acute 10 μM forskolin and 300 nM ivacaftor
[2] = Table 7, human enteroid cells, 18-24 hours, acute 10 μM forskolin and 300 nM ivacaftor

Chain of CFTR (P13569 with tags, fused parts or gaps DEL508-508): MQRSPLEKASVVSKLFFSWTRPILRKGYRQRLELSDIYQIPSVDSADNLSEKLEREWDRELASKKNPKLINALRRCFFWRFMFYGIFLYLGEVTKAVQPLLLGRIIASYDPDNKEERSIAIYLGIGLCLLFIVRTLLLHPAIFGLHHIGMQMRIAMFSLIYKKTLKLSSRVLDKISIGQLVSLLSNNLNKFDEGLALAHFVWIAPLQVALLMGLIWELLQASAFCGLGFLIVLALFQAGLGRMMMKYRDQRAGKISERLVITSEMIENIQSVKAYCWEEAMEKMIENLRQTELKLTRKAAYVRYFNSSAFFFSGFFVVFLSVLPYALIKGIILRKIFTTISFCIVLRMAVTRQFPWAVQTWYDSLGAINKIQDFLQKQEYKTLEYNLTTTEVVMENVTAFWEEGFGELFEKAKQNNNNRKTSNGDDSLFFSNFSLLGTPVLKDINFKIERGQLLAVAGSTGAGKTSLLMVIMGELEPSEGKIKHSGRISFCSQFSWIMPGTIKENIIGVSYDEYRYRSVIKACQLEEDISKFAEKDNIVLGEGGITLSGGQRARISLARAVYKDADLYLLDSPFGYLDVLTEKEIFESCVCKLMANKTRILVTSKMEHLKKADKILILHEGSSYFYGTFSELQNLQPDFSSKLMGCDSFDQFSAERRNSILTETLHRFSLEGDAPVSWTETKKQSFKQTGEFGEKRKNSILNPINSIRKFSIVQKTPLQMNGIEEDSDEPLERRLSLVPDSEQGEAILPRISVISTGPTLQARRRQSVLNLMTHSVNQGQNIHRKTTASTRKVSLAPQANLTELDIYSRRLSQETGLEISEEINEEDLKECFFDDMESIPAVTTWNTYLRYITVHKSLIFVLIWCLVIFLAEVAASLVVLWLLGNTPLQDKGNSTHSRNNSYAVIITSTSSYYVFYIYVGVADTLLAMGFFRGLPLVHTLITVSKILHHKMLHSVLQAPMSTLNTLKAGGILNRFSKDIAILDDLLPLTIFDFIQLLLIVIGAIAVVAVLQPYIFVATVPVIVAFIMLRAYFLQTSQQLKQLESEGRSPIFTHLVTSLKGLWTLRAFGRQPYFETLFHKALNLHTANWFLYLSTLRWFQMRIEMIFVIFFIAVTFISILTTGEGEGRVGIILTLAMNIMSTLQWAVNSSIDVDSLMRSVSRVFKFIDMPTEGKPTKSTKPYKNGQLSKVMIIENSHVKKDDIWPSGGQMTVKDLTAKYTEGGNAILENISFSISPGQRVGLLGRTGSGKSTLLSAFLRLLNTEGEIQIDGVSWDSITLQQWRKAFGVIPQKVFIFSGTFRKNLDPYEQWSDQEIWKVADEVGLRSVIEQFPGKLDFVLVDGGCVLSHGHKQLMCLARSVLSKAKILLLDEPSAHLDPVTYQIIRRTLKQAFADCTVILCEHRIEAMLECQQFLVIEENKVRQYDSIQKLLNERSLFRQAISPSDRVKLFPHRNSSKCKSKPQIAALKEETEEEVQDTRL

| SMILES | Ent. B Max Activity (Table 8) | EC50 [1] | other results |
| --- | --- | --- | --- |
| Cc1cccc(C)c1-c1cc2nc(n1)NS(=O)(=O)c1cccc(c1)C(=O)N(CCS(C)(=O)=O)[C@H](CC(C)C)CO2 [Compound 388] | – | – | Ent. B Max Activity (%) (Table 9): +++ (+++ is >600%); EC50 (Table 9): < 1000 nM |
| Cc1cccc(C)c1-c1cc2nc(n1)NS(=O)(=O)c1cccc(c1)C(=O)N(CCCS(C)(=O)=O)[C@H](CC(C)C)CO2 [Compound 389] | – | – | Ent. B Max Activity (%) (Table 9): +++ (+++ is >600%); EC50 (Table 9): < 1000 nM |
| Cc1cccc(C)c1-c1cc2nc(n1)NS(=O)(=O)c1cccc(c1)C(=O)N(Cc1ncccc1N)[C@H](CC(C)(C)C)CO2 [Compound 390] | – | – | Ent. B Max Activity (%) (Table 9): +++ (+++ is >600%); EC50 (Table 9): < 1000 nM |
| CC(=O)Nc1cccc(CN2C(=O)c3cccc(c3)S(=O)(=O)Nc3nc(cc(-c4c(C)cccc4C)n3)OC[C@H]2CC(C)(C)C)n1 [Compound 391] | – | – | Ent. B Max Activity (%) (Table 9): +++ (+++ is >600%); EC50 (Table 9): < 1000 nM |
| Cc1cccc(C)c1-c1cc2nc(n1)NS(=O)(=O)c1cccc(c1)C(=O)N(Cc1ncccc1NC(=O)OC(C)C)[C@H](CC(C)(C)C)CO2 [Compound 392] | – | – | Ent. B Max Activity (%) (Table 9): +++ (+++ is >600%); EC50 (Table 9): < 1000 nM |
| CC(=O)Nc1cccnc1CN1C(=O)c2cccc(c2)S(=O)(=O)Nc2nc(cc(-c3c(C)cccc3C)n2)OC[C@H]1CC(C)(C)C [Compound 393] | – | – | Ent. B Max Activity (%) (Table 9): +++ (+++ is >600%); EC50 (Table 9): < 1000 nM |
| Cc1cccc(C)c1-c1cc2nc(n1)NS(=O)(=O)c1cccc(c1)C(=O)N(CCc1ccc(C(=O)N(C)C)cc1)[C@H](CC(C)(C)C)CO2 [Compound 394] | +++ (+++ is >60%) | < 1000 nM | – |
| CNC(=O)c1ccc(CCN2C(=O)c3cccc(c3)S(=O)(=O)Nc3nc(cc(-c4c(C)cccc4C)n3)OC[C@H]2CC(C)(C)C)cc1 [Compound 395] | ++ (++ is 30-60%) | < 1000 nM | – |
| Cc1cccc(C)c1-c1cc2nc(n1)NS(=O)(=O)c1cccc(c1)C(=O)N(CCc1ccc(C(N)=O)cc1)[C@H](CC(C)(C)C)CO2 [Compound 396] | ++ (++ is 30-60%) | < 1000 nM | – |
| CNC(=O)c1ccc(CN2C(=O)c3cccc(c3)S(=O)(=O)Nc3nc(cc(-c4c(C)cccc4C)n3)OC[C@H]2CC(C)(C)C)nc1 [Compound 397] | +++ (+++ is >60%) | < 1000 nM | – |
| Cc1cccc(C)c1-c1cc2nc(n1)NS(=O)(=O)c1cccc(c1)C(=O)N(Cc1ccc(C(N)=O)cn1)[C@H](CC(C)(C)C)CO2 [Compound 398] | +++ (+++ is >60%) | < 1000 nM | – |
| Cc1cccc(C)c1-c1cc2nc(n1)NS(=O)(=O)c1cccc(c1)C(=O)N(CC(C)(C)C)[C@H](CC(C)(C)C)CO2 [Compound 399] | – | – | Ent. B Max Activity (%) (Table 9): +++ (+++ is >600%); EC50 (Table 9): < 1000 nM |
| Cc1cccc(C)c1-c1cc2nc(n1)NS(=O)(=O)c1cccc(c1)C(=O)N(CC(C)(C)C)[C@H](CC(C)C)CO2 [Compound 400] | ++ (++ is 30-60%) | < 1000 nM | – |
| Cc1cccc(C)c1-c1cc2nc(n1)NS(=O)(=O)c1cccc(c1)C(=O)N(Cc1ccc(NC(=O)OC(C)C)nc1)[C@H](CC(C)(C)C)CO2 [Compound 401] | +++ (+++ is >60%) | < 1000 nM | – |
| COC(=O)Nc1ccc(CN2C(=O)c3cccc(c3)S(=O)(=O)Nc3nc(cc(-c4c(C)cccc4C)n3)OC[C@H]2CC(C)(C)C)cn1 [Compound 402] | +++ (+++ is >60%) | < 1000 nM | – |
| COC(=O)N1CCn2ncc(CN3C(=O)c4cccc(c4)S(=O)(=O)Nc4nc(cc(-c5c(C)cccc5C)n4)OC[C@H]3CC(C)(C)C)c2C1 [Compound 403] | +++ (+++ is >60%) | < 1000 nM | – |
| CC(=O)NCCCN1C(=O)c2cccc(c2)S(=O)(=O)Nc2nc(cc(-c3c(C)cccc3C)n2)OC[C@H]1CC(C)C [Compound 404] | +++ (+++ is >60%) | < 1000 nM | – |

| SMILES | Ent. B Max Activity (Table 8) | EC50 [1] | other results |
| --- | --- | --- | --- |
| CC(=O)N(C)CCN1C(=O)c2cccc(c2)S(=O)(=O)Nc2nc(cc(-c3c(C)cccc3C)n2)OC[C@H]1CC(C)C [Compound 405] | +++ (+++ is >60%) | < 1000 nM | – |
| CNC(=O)CCCN1C(=O)c2cccc(c2)S(=O)(=O)Nc2nc(cc(-c3c(C)cccc3C)n2)OC[C@H]1CC(C)C [Compound 406] | +++ (+++ is >60%) | 1000 to 3000 nM | – |
| Cc1cccc(C)c1-c1cc2nc(n1)NS(=O)(=O)c1cccc(c1)C(=O)N(CCCC(N)=O)[C@H](CC(C)C)CO2 [Compound 407] | – | – | Ent. B Max Activity (Table 7): +++ (+++ is >60%); EC50 [2]: 1000 to 3000 nM |
| Cc1cccc(C)c1-c1cc2nc(n1)NS(=O)(=O)c1cccc(c1)C(=O)N(CCCNC(=O)OC(C)C)[C@H](CC(C)C)CO2 [Compound 408] | – | – | Ent. B Max Activity (Table 7): +++ (+++ is >60%); EC50 [2]: < 1000 nM |
| COC(=O)NCCCN1C(=O)c2cccc(c2)S(=O)(=O)Nc2nc(cc(-c3c(C)cccc3C)n2)OC[C@H]1CC(C)C [Compound 409] | – | – | Ent. B Max Activity (Table 7): +++ (+++ is >60%); EC50 [2]: < 1000 nM |
| COC(=O)N(C)CCN1C(=O)c2cccc(c2)S(=O)(=O)Nc2nc(cc(-c3c(C)cccc3C)n2)OC[C@H]1CC(C)C [Compound 410] | – | – | Ent. B Max Activity (Table 7): +++ (+++ is >60%); EC50 [2]: < 1000 nM |
| Cc1cccc(C)c1-c1cc2nc(n1)NS(=O)(=O)c1cccc(c1)C(=O)N(CCCN(C)C)[C@H](CC(C)C)CO2 [Compound 411] | – | – | Ent. B Max Activity (Table 7): +++ (+++ is >60%); EC50 [2]: < 1000 nM |
| Cc1cccc(C)c1-c1cc2nc(n1)NS(=O)(=O)c1cccc(c1)C(=O)N(CCN(C)C)[C@H](CC(C)C)CO2 [Compound 412] | – | – | Ent. B Max Activity (Table 7): +++ (+++ is >60%); EC50 [2]: < 1000 nM |
| COC(=O)Nc1cccc(CN2C(=O)c3cccc(c3)S(=O)(=O)Nc3nc(cc(-c4c(C)cccc4C)n3)OC[C@H]2CC(C)(C)C)c1 [Compound 506] | +++ (+++ is >60%) | < 1000 nM | – |
| Cc1cccc(C)c1-c1cc2nc(n1)NS(=O)(=O)c1cccc(c1)C(=O)N(Cc1cccc(NC(=O)OC(C)C)c1)[C@H](CC(C)(C)C)CO2 [Compound 507] | +++ (+++ is >60%) | < 1000 nM | – |
| Cc1cccc(C)c1-c1cc2nc(n1)NS(=O)(=O)c1cccc(c1)C(=O)N(Cc1ccc(NC(=O)OC(C)C)cc1)[C@H](CC(C)(C)C)CO2 [Compound 508] | +++ (+++ is >60%) | < 1000 nM | – |
| Cc1cccc(C)c1-c1cc2nc(n1)NS(=O)(=O)c1cccc(c1)C(=O)N(Cc1ncccn1)[C@H](CC(C)(C)O)CO2 [Compound 658] | +++ (+++ is >60%) | 1000 to 3000 nM | – |
| Cc1cccc(C)c1-c1cc2nc(n1)NS(=O)(=O)c1cccc(c1)C(=O)N(Cc1ncccn1)[C@H](CCC(C)(C)O)CO2 [Compound 659] | ++ (++ is 30-60%) | 1000 to 3000 nM | – |
| Cc1cccc(C)c1-c1cc2nc(n1)NS(=O)(=O)c1cccc(c1)C(=O)N(CCCC(C)(C)O)[C@H](CCC(C)(C)O)CO2 [Compound 660] | + (+ is <30%) | – | – |
| Cc1cccc(C)c1-c1cc2nc(n1)NS(=O)(=O)c1cccc(c1)C(=O)N(Cc1ccc(C(C)(C)O)cc1)[C@H](CCC(C)(C)O)CO2 [Compound 661] | ++ (++ is 30-60%) | 1000 to 3000 nM | – |
| Cc1cccc(C)c1-c1cc2nc(n1)NS(=O)(=O)c1cccc(c1)C(=O)N(CCCC(C)(C)O)[C@H](CC(C)(C)O)CO2 [Compound 662] | + (+ is <30%) | 1000 to 3000 nM | – |
